Reference: the supplement of paper PMC6045584
± gives the standard deviation of the averaged measurements.

Assays:
MK2206 = compound: NC1(c2ccc(-c3nc4ccn5c(=O)[nH]nc5c4cc3-c3ccccc3)cc2)CCC1 [MK2206]; experiment: surviving fraction relative to DMSO-only wells; higher = less growth inhibition; settings: exposure time: 5 days
Method in brief: (§1)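 Continuous five-day exposure to inhibitors at 0.5, 1, 5, 10, 50, 100, 500 and 1000 nM started 24 hours after log-phase tumour cell lines were seeded at 250–500 cells per well in 384-well plates. Luminescence was read after 10 minutes at room temperature. Viability is given as surviving fraction, meaning CellTiter-Glo luminescence normalised to the median of DMSO-only wells.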

EVEROLIMUS = compound: CO[C@H]1C[C@@H]2CC[C@@H](C)[C@@](O)(O2)C(=O)C(=O)N2CCCC[C@H]2C(=O)O[C@H]([C@H](C)C[C@@H]2CC[C@@H](OCCO)[C@H](OC)C2)CC(=O)[C@H](C)/C=C(\C)[C@@H](O)[C@@H](OC)C(=O)[C@H](C)C[C@H](C)/C=C/C=C/C=C/1C [EVEROLIMUS]; experiment: as above; settings: exposure time: 5 days
Method in brief: as §1

Test System | surviving fraction (MK2206; 0.5 nM) | surviving fraction (MK2206; 1 nM) | surviving fraction (MK2206; 5 nM) | surviving fraction (MK2206; 10 nM) | surviving fraction (MK2206; 50 nM) | surviving fraction (MK2206; 100 nM) | surviving fraction (MK2206; 500 nM) | surviving fraction (MK2206; 1000 nM) | surviving fraction (EVEROLIMUS; 0.5 nM) | surviving fraction (EVEROLIMUS; 1 nM) | surviving fraction (EVEROLIMUS; 5 nM) | surviving fraction (EVEROLIMUS; 10 nM) | surviving fraction (EVEROLIMUS; 50 nM) | surviving fraction (EVEROLIMUS; 100 nM) | surviving fraction (EVEROLIMUS; 500 nM) | surviving fraction (EVEROLIMUS; 1000 nM)
HSSYII SYNOVIAL | 0.937 ± 0.019 | 0.9935 ± 0.0096 | 0.93 ± 0.042 | 0.984 ± 0.043 | 0.903 ± 0.059 | 0.921 ± 0.037 | 0.773 ± 0.024 | 0.738 ± 0.032 | 0.781 ± 0.043 | 0.711 ± 0.066 | 0.616 ± 0.018 | 0.566 ± 0.025 | 0.476 ± 0.011 | 0.462 ± 0.025 | 0.416 ± 0.051 | 0.3632 ± 0.0025
MDAMB436 BREAST | 1.02 ± 0.14 | 0.932 ± 0.087 | 0.954 ± 0.023 | 0.957 ± 0.068 | 0.928 ± 0.023 | 0.924 ± 0.11 | 0.828 ± 0.14 | 0.734 ± 0.088 | 0.7 ± 0.022 | 0.655 ± 0.044 | 0.598 ± 0.027 | 0.606 ± 0.039 | 0.577 ± 0.025 | 0.589 ± 0.046 | 0.633 ± 0.057 | 0.558 ± 0.061
HCC1806 BREAST | 1.02 ± 0.074 | 1.1 ± 0.021 | 1.15 ± 0.19 | 1.14 ± 0.05 | 1.05 ± 0.072 | 1.02 ± 0.099 | 0.828 ± 0.013 | 0.682 ± 0.015 | 0.918 ± 0.13 | 0.911 ± 0.043 | 0.888 ± 0.085 | 0.851 ± 0.051 | 0.784 ± 0.095 | 0.859 ± 0.083 | 0.669 ± 0.11 | 0.74 ± 0.12
CHLA90 AUTONOMIC GANGLIA | 1.04 ± 0.058 | 1.01 ± 0.037 | 0.944 ± 0.013 | 0.929 ± 0.025 | 0.945 ± 0.024 | 0.997 ± 0.1 | 0.9213 ± 0.0085 | 0.947 ± 0.053 | 0.634 ± 0.051 | 0.512 ± 0.026 | 0.342 ± 0.021 | 0.343 ± 0.011 | 0.372 ± 0.066 | 0.404 ± 0.091 | 0.355 ± 0.067 | 0.344 ± 0.085
OS25HAL BONE | 0.998 ± 0.042 | 1.07 ± 0.028 | 1.07 ± 0.024 | 1.02 ± 0.026 | 0.813 ± 0.066 | 0.631 ± 0.085 | 0.301 ± 0.035 | 0.278 ± 0.021 | 0.863 ± 0.044 | 0.846 ± 0.0091 | 0.679 ± 0.029 | 0.622 ± 0.042 | 0.598 ± 0.014 | 0.581 ± 0.039 | 0.546 ± 0.034 | 0.52 ± 0.022
U2OS BONE | 0.992 ± 0.017 | 1.03 ± 0.051 | 1.03 ± 0.027 | 1.05 ± 0.026 | 0.991 ± 0.015 | 0.941 ± 0.035 | 0.815 ± 0.0053 | 0.731 ± 0.055 | 0.954 ± 0.025 | 0.88 ± 0.039 | 0.7943 ± 0.0025 | 0.706 ± 0.039 | 0.678 ± 0.011 | 0.651 ± 0.029 | 0.633 ± 0.012 | 0.568 ± 0.03
VP229 BREAST | 1.1 ± 0.13 | 1.19 ± 0.16 | 1.19 ± 0.14 | 1.18 ± 0.15 | 1.07 ± 0.14 | 0.909 ± 0.18 | 0.713 ± 0.055 | 0.658 ± 0.12 | 0.812 ± 0.056 | 0.664 ± 0.048 | 0.645 ± 0.086 | 0.566 ± 0.051 | 0.584 ± 0.01 | 0.541 ± 0.058 | 0.507 ± 0.061 | 0.511 ± 0.045
HCC202 BREAST | 1.07 ± 0.091 | 1.08 ± 0.12 | 1.2 ± 0.16 | 1.2 ± 0.074 | 0.699 ± 0.37 | 0.688 ± 0.035 | 0.238 ± 0.012 | 0.238 ± 0.0064 | 1 ± 0.083 | 0.79 ± 0.055 | 0.548 ± 0.15 | 0.578 ± 0.13 | 0.383 ± 0.093 | 0.471 ± 0.1 | 0.44 ± 0.054 | 0.385 ± 0.14
BT20 BREAST | 1.14 ± 0.045 | 1.15 ± 0.07 | 1.05 ± 0.034 | 1.01 ± 0.078 | 1.11 ± 0.12 | 1.16 ± 0.052 | 1.39 ± 0.066 | 1.16 ± 0.05 | 0.595 ± 0.042 | 0.46 ± 0.037 | 0.394 ± 0.041 | 0.378 ± 0.042 | 0.353 ± 0.015 | 0.369 ± 0.02 | 0.34 ± 0.018 | 0.374 ± 0.018
HMT3552 BREAST | 1.05 ± 0.029 | 1.05 ± 0.02 | 1.1 ± 0.03 | 1.02 ± 0.033 | 1.03 ± 0.041 | 0.909 ± 0.076 | 0.692 ± 0.02 | 0.62 ± 0.014 | 0.742 ± 0.097 | 0.6117 ± 0.0057 | 0.591 ± 0.021 | 0.598 ± 0.032 | 0.649 ± 0.016 | 0.616 ± 0.049 | 0.545 ± 0.05 | 0.549 ± 0.067
CAL120 BREAST | 0.976 ± 0.071 | 0.977 ± 0.062 | 0.991 ± 0.068 | 1.01 ± 0.06 | 0.966 ± 0.051 | 0.951 ± 0.031 | 0.859 ± 0.038 | 0.823 ± 0.043 | 0.707 ± 0.073 | 0.602 ± 0.062 | 0.501 ± 0.028 | 0.486 ± 0.026 | 0.463 ± 0.007 | 0.45 ± 0.021 | 0.424 ± 0.021 | 0.412 ± 0.0054
93VU HEADNECK | 1.06 ± 0.076 | 1.07 ± 0.14 | 1.1 ± 0.093 | 1.15 ± 0.048 | 1.02 ± 0.045 | 0.999 ± 0.11 | 0.789 ± 0.085 | 0.649 ± 0.038 | 0.953 ± 0.098 | 0.905 ± 0.076 | 0.865 ± 0.024 | 0.841 ± 0.065 | 0.85 ± 0.051 | 0.767 ± 0.11 | 0.706 ± 0.027 | 0.649 ± 0.049
NOS1 BONE | 0.882 ± 0.11 | 0.883 ± 0.088 | 1.01 ± 0.1 | 1.04 ± 0.11 | 0.807 ± 0.14 | 0.734 ± 0.011 | 0.503 ± 0.038 | 0.454 ± 0.053 | 0.77 ± 0.073 | 0.655 ± 0.039 | 0.607 ± 0.022 | 0.536 ± 0.048 | 0.491 ± 0.03 | 0.461 ± 0.052 | 0.415 ± 0.019 | 0.362 ± 0.023
ASKA SYNOVIAL | 0.991 ± 0.089 | 1.06 ± 0.014 | 1 ± 0.04 | 1.02 ± 0.16 | 0.771 ± 0.038 | 0.724 ± 0.064 | 0.482 ± 0.018 | 0.481 ± 0.022 | 1 ± 0.077 | 0.93 ± 0.1 | 0.787 ± 0.085 | 0.62 ± 0.049 | 0.612 ± 0.022 | 0.576 ± 0.051 | 0.531 ± 0.036 | 0.577 ± 0.04
BT549 BREAST | 1.07 ± 0.092 | 1.06 ± 0.048 | 0.982 ± 0.15 | 1.06 ± 0.07 | 0.837 ± 0.05 | 0.833 ± 0.091 | 0.616 ± 0.078 | 0.46 ± 0.043 | 0.569 ± 0.026 | 0.531 ± 0.061 | 0.415 ± 0.032 | 0.499 ± 0.079 | 0.4507 ± 0.0023 | 0.418 ± 0.05 | 0.365 ± 0.017 | 0.356 ± 0.027
HCC38 BREAST | 1.36 ± 0.11 | 1.33 ± 0.26 | 1.36 ± 0.073 | 1.32 ± 0.12 | 1.32 ± 0.23 | 1.15 ± 0.083 | 1.11 ± 0.048 | 0.898 ± 0.12 | 1.17 ± 0.022 | 1.01 ± 0.065 | 0.897 ± 0.11 | 0.925 ± 0.069 | 0.795 ± 0.08 | 0.888 ± 0.033 | 0.733 ± 0.024 | 0.852 ± 0.027
COLO320DM LARGE INTESTINE | 0.985 ± 0.038 | 1.12 ± 0.11 | 1.11 ± 0.052 | 1.08 ± 0.066 | 1.03 ± 0.15 | 0.969 ± 0.059 | 0.707 ± 0.047 | 0.557 ± 0.056 | 0.945 ± 0.056 | 0.983 ± 0.072 | 0.835 ± 0.081 | 0.843 ± 0.074 | 0.742 ± 0.017 | 0.779 ± 0.037 | 0.695 ± 0.047 | 0.652 ± 0.025
SYO1 SYNOVIAL | 0.95 ± 0.012 | 0.975 ± 0.05 | 0.953 ± 0.022 | 1 ± 0.028 | 0.905 ± 0.032 | 0.885 ± 0.066 | 0.748 ± 0.051 | 0.702 ± 0.036 | 0.8921 ± 0.0089 | 0.834 ± 0.011 | 0.661 ± 0.016 | 0.602 ± 0.036 | 0.508 ± 0.011 | 0.508 ± 0.0081 | 0.484 ± 0.036 | 0.45 ± 0.022
SUM149.B1*.S BREAST | 1.08 ± 0.057 | 1.14 ± 0.093 | 1.12 ± 0.034 | 1.09 ± 0.076 | 1.05 ± 0.058 | 1.07 ± 0.045 | 0.998 ± 0.056 | 1.06 ± 0.036 | 1.11 ± 0.032 | 1.06 ± 0.034 | 1.04 ± 0.039 | 0.754 ± 0.082 | 0.696 ± 0.16 | 0.681 ± 0.17 | 0.698 ± 0.13 | 0.653 ± 0.13
SG27 HEADNECK | 1.15 ± 0.065 | 1.17 ± 0.066 | 1.07 ± 0.056 | 1.05 ± 0.089 | 0.843 ± 0.18 | 0.949 ± 0.12 | 0.948 ± 0.043 | 0.932 ± 0.042 | 1.1 ± 0.11 | 1.02 ± 0.019 | 0.978 ± 0.07 | 1.01 ± 0.046 | 0.871 ± 0.037 | 0.904 ± 0.11 | 0.92 ± 0.046 | 0.903 ± 0.08
